The record followed here is US20240327392A1, “HETEROCYCLOALKYL-SUBSTITUTED POLYHETEROAZOLE DERIVATIVES AS MEDICAMENTS FOR TREATING AND/OR PREVENTING RS VIRUS INFECTIONS” (ALBIUS SCIENCES ALPHA PRIVATE LIMITED, priority 2021, published 2024).

Where only a bound is given, the exact number is not on record here.

In the first test the test system is human RS virus A2 strain. The test is described as follows: In vitro test for anti-RS virus proliferation inhibitory activity (quantitative RT-PCR of RS virus RNA copy number in infected Vero cells). The class given is cell-based. Particulars: 72 h; Vero cells infected with human RS virus A2 strain, 3 days of incubation, RS virus N gene RNA copy number by quantitative RT-PCR; read-out: Anti-RS virus Activity. An outline of the steps: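 Vero cells infected with RSV A2 (1.7×10^4 TCID50/mL in inoculum mix) with compound in 10% FCS EMEM, 3 days at 37 °C, 5% CO2. Lysate viral N-gene RNA quantified by one-step SYBR qRT-PCR; copy number by comparative Ct relative to untreated infected cells.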
In the case of `CS(=O)(=O)N1C[C@H](O)C[C@H]1c1nc(CCCc2ccccc2)no1` [Compound 3C, 3-(3-phenylpropyl)-5-[(2S,4R)-4-hydroxy-1-methanesulfonylpyrrolidin-2-yl]-1,2,4-oxadiazole], the IC50 was greater than 50 µM.

In the case of `O=S(=O)(c1ccccc1)N1C[C@H](O)C[C@H]1c1nc(CCCc2ccccc2)no1` [Compound 3D, 3-(3-phenylpropyl)-5-[(2S,4R)-1-benzenesulfonyl-4-hydroxypyrrolidin-2-yl]-1,2,4-oxadiazole], the IC50 is greater than 50 µM.

For `CC(C)(C)O[C@@H]1C[C@@H](c2nc(CCCc3ccccc3)no2)N(S(=O)(=O)C2CCCCC2)C1` [Compound 4B, 3-(3-phenylpropyl)-5-[(2S,4R)-4-tert-butoxy-1-cyclohexylsulfonyl-pyrrolidin-2-yl]-1,2,4-oxadiazole], the IC50 is less than 10 µM.

Staying with this test, now noted: 72 h; Vero cells infected with human RS virus A2 strain, 3 days of incubation, RS virus RNA copy number by quantitative RT-PCR; read-out: Anti-RS virus Activity.
Regarding `CC(C)(C)OC(=O)N1C[C@H](c2ccccc2)C[C@H]1c1nc(CCCCCc2ccccc2)no1` [Compound C5-7-1, Tert-butyl (2S,4S)-4-phenyl-2-(3-(5-phenylpentyl)-1,2,4-oxadiazol-5-yl)pyrrolidine-1-carboxylate], the IC50 is less than 10 µM.

As to `Cc1sc([C@@H]2CCCCN2S(=O)(=O)C2CCCCC2)nc1C(=O)O` [Compound 36B, (S)-2-(1-(Cyclohexylsulfonyl)piperidin-2-yl)-5-methyl thiazole-4-carboxylic acid], the IC50 was less than 10 µM.

As to `CC(C)(C)OC(=O)N1CCCC[C@H]1c1nnc(CCCc2ccccc2)o1` [Compound 18-1, Tert-butyl (S)-2-(5-(3-phenylpropyl)-1,3,4-oxadiazol-2-yl) piperidine-1-carboxylate], the IC50 was less than 10 µM.

As for `CC(C)(C)OC(=O)N1CCC(S(=O)(=O)N2C[C@H](c3ccccc3)C[C@H]2c2nc(CCCc3ccccc3)no2)CC1` [Compound 7AO], the IC50 was less than 10 µM.

Consider `O=S(=O)(N1CCCCC1)N1CC(CC2CCC2)CC1c1nc(CCCc2ccccc2)no1` (centres unmarked) [Compound 6AD, 5-(4-(cyclobuthylmethyl)-1-(piperidin-1-ylsulfonyl)pyrrolidin-2-yl)-3-(3-phenylpropyl)-1,2,4-oxadiazole], for which the IC50 fell in the range of 10 to 50 µM.

For the compound `COC(=O)c1nc([C@@H]2CCCCN2S(=O)(=O)C2CCCCC2)sc1C` [Compound 35B, Methyl (S)-2-(1-(cyclohexylsulfonyl)piperidin-2-yl)-5-methylthiazole-4-carboxylate], the IC50 lay within 10 to 50 µM.

As for `CC(C)(C)OC(=O)N1C[C@@H](C#N)C[C@H]1c1nc(CCCc2ccccc2)no1` [Compound 41-1, Tert-butyl (2S,4S)-4-cyano-2-(3-(3-phenylpropyl)-1,2,4-oxadiazol-5-yl)pyrrolidine-1-carboxylate], the IC50 was 10 to 50 µM.

Turning to `O=S(=O)(N1CCCC[C@H]1c1nc(CCCc2ccccc2)no1)C12CC3CC(CC(C3)C1)C2` [Compound 2AG, 5-((S)-1-((adamantan-1-yl)sulfonyl)piperidin-2-yl)-3-(3-phenylpropyl)-1,2,4-oxadiazole], the IC50 fell in the range of 10 to 50 µM.

`O=S(=O)(N1CCOCC1)N1C[C@H](c2ccccc2)C[C@H]1c1nc(CCCc2ccccc2)no1` [Compound 7AE, 4-(((2S,4S)-4-phenyl2-(3-(3-phenylpropyl)-1,2,4-oxadiazole-5-yl)pyrrolidin-1-yl)sulfonyl) morpholine]: the IC50 was in the range of 10 to 50 µM.

Take `CC(C)(C)OC(=O)N1C[C@H](c2ccccc2)C[C@H]1c1nc(CCCCc2ccccc2)no1` [Compound C4-7-1, Tert-butyl (2S,4S)-4-phenyl-2-(3-(4-phenylbutyl)-1,2,4-oxadiazol-5-yl)pyrrolidine-1-carboxylate]: the IC50 was less than 10 µM.

Still in this test, the particulars now being: Vero, 72 h, read-out: Anti-RS virus Activity.
For `S=C(Nc1ccccc1)N1C[C@H](c2ccccc2)C[C@H]1c1nc(CCCc2ccccc2)no1` [Compound 7AQ, (2S,4S)—N,4-di phenyl-2-(3-(3-phenylpropyl)-1,2,4-oxadiazol-5-yl) pyrrolidine-1-carbothioamide], the IC50 is 10 to 50 µM.
